The compounds below were run against PDE10A (Homo sapiens (Human), UniProt Q9Y233) (assay: PDE10A inhibition assay).
Type: biochemical
Description: Active PDE10A enzyme is prepared in a number of ways for use in PDE assays (Loughney, K. et al. Gene 1999, 234, 109-117; Fujishige, K. et al. Eur J. Biochem. 1999, 266, 1118-1127 and Soderling, S. et al. Proc. Natl. Acad. Sci. 1999, 96, 7071-7076). PDE10A can be expressed as full-length proteins or as truncated proteins, as long as they express the catalytic domain. PDE10A can be prepared in different cell types, for example insect cells or E. coli. An example of a method to obtain catalytically active PDE10A is as follows: The catalytic domain of human PDE10A (amino acids 440-779 from the sequence with accession number NP 006652) is amplified from total human brain total RNA by standard RT-PCR and is cloned into the BamH1 and Xho1 sites of the pET28a vector (Novagen). Expression in coli is performed according to standard protocols. Briefly, the expression plasmids are transformed into the BL21(DE3) E. coli strain, and 50 mL cultures inoculated with the cells allowed to grow to an OD600 of 0.4-0.6 before protein expression is induced with 0.5 mM IPTG. Following induction, the cells are incubated overnight at room temperature, after which the cells are collected by centrifugation. Cells expressing PDE10A are resuspended in 12 mL (50 mM TRIS-HCl-pH8.0, 1 mM MgCl2 and protease inhibitors). The cells are lysed by sonication, and after all cells are lysed, TritonX100 is added according to Novagen protocols.
A PDE10A assay may for example, be performed as follows: The assay is performed in 60 uL samples containing a fixed amount of the relevant PDE enzyme (sufficient to convert 20-25% of the cyclic nucleotide substrate); a buffer (50 mM HEPES7.6; 10 mM MgCl2; 0.02% Tween20), 0.1 mg/ml BSA, 225 pCi of ^3H-labelled cyclic nucleotide substrate, tritium labeled cAMP to a final concentration of 5 nM and varying amounts of inhibitors. Reactions are initiated by addition of the cyclic nucleotide substrate, and reactions are allowed to proceed for one hr at room temperature before being terminated through mixing with 15 uL 8 mg/mL yttrium silicate SPA beads (Amersham). The beads are allowed to settle for one hr in the dark before the plates are counted in a Wallac 1450 Microbeta counter. The measured signal can be converted to activity relative to an uninhibited control (100%) and IC50 values can be calculated using the Xlfit extension to EXCEL.

PDE10A, sequence (Q9Y233 716-1055): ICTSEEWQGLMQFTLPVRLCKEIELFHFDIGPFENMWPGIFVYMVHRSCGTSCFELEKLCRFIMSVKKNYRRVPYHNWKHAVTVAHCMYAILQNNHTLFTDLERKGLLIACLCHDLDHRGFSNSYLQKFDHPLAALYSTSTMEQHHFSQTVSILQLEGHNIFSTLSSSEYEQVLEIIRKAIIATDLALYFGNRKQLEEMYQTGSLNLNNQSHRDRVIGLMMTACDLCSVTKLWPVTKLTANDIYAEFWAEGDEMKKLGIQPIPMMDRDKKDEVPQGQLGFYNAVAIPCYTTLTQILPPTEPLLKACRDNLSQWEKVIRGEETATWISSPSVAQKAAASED

IC50 [nM]	SMILES
56	Cc1cc(C)n2cc(/C=C/c3nc(-c4ccsc4)cn3C)nc2n1 [5,7-Dimethyl-2-[(E)-2-(1-methyl-4-thiophen-3-yl-1H-imidazol-2-yl)-vinyl]-imidazo[1,2-a]pyrimidine]
36	Cc1cc(C)n2cc(CCc3nc(-c4cccs4)cn3CCN3CCOCC3)nc2n1 [5,7-Dimethyl-2-{2-[1-(2-morpholin-4-yl-ethyl)-4-thiophen-2-yl-1H-imidazol-2-yl]-ethyl}-imidazo[1,2-a]pyrimidine]
6.8	Cc1cc(C)n2cc(CCc3nc(-c4cccs4)cn3CCC(C)C)nc2n1 [5,7-Dimethyl-2-{2-[1-(3-methyl-butyl)-4-thiophen-2-yl-1H-imidazol-2-yl]-ethyl}-imidazo[1,2-a]pyrimidine]
38	Cc1cc(C)n2nc(CCc3nc(-c4ccc(C)o4)cn3C)nc2n1 [5,7-Dimethyl-2-{2-[1-methyl-4-(5-methyl-furan-2-yl)-1H-imidazol-2-yl]-ethyl}-[1,2,4]triazolo[1,5-a]pyrimidine]
0.52	Cc1ncc(C)n2nc(CCc3nc(-c4cnccn4)cn3C)nc12 [5,8-Dimethyl-2-[2-(1-methyl-4-pyrazin-2-yl-1H-imidazol-2-yl)-ethyl]-[1,2,4]triazolo[1,5-a]pyrazine]
8.9	Cc1ncc(C)n2nc(CCc3nc(-c4cccnc4)cn3C)nc12 [5,8-Dimethyl-2-[2-(1-methyl-4-pyridin-3-yl-1H-imidazol-2-yl)-ethyl]-[1,2,4]triazolo[1,5-a]pyrazine]
5.7	Cc1ccc(C)n2nc(CCc3nc(-c4cccnc4)cn3C)nc12 [5,8-Dimethyl-2-[2-(1-methyl-4-pyridin-3-yl-1H-imidazol-2-yl)-ethyl]-[1,2,4]triazolo[1,5-a]pyridine]
0.55	Cc1ncc(C)n2nc(CCc3nc(-c4ccncc4)cn3C)nc12 [5,8-Dimethyl-2-[2-(1-methyl-4-pyridin-4-yl-1H-imidazol-2-yl)-ethyl]-[1,2,4]triazolo[1,5-a]pyrazine]
0.44	Cc1ncc(C)n2nc(CCc3nc(-c4cncnc4)cn3C)nc12 [5,8-Dimethyl-2-[2-(1-methyl-4-pyrimidin-5-yl-1H-imidazol-2-yl)-ethyl]-[1,2,4]triazolo[1,5-a]pyrazine]
2.7	Cc1ncc(C)n2nc(CCc3nc(-c4nccs4)cn3C)nc12 [5,8-Dimethyl-2-[2-(1-methyl-4-thiazol-2-yl-1H-imidazol-2-yl)-ethyl]-[1,2,4]triazolo[1,5-a]pyrazine]
2.3	Cc1ccc(C)n2nc(CCc3nc(-c4nccs4)cn3C)nc12 [5,8-Dimethyl-2-[2-(1-methyl-4-thiazol-2-yl-1H-imidazol-2-yl)-ethyl]-[1,2,4]triazolo[1,5-a]pyridine]
1.29	Cc1ncc(C)n2nc(CCc3nc(-c4cscn4)cn3C)nc12 [5,8-Dimethyl-2-[2-(1-methyl-4-thiazol-4-yl-1H-imidazol-2-yl)-ethyl]-[1,2,4]triazolo[1,5-a]pyrazine]
0.4	Cc1ccc(C)n2nc(CCc3nc(-c4cscn4)cn3C)nc12 [5,8-Dimethyl-2-[2-(1-methyl-4-thiazol-4-yl-1H-imidazol-2-yl)-ethyl]-[1,2,4]triazolo[1,5-a]pyridine]
6.9	Cc1ncc(C)n2nc(CCc3nc(-c4cncs4)cn3C)nc12 [5,8-Dimethyl-2-[2-(1-methyl-4-thiazol-5-yl-1H-imidazol-2-yl)-ethyl]-[1,2,4]triazolo[1,5-a]pyrazine]
0.39	Cc1ncc(C)n2nc(CCc3nc(-c4cccs4)cn3C)nc12 [5,8-Dimethyl-2-[2-(1-methyl-4-thiophen-2-yl-1H-imidazol-2-yl)-ethyl]-[1,2,4]triazolo[1,5-a]pyrazine]
1	Cc1ccc(C)n2nc(CCc3nc(-c4cccs4)cn3C)nc12 [5,8-Dimethyl-2-[2-(1-methyl-4-thiophen-2-yl-1H-imidazol-2-yl)-ethyl]-[1,2,4]triazolo[1,5-a]pyridine]

IC50 [nM]	SMILES
6.8	Cc1ccc(-c2cn(C)c(CCc3nc4c(C)ncc(C)n4n3)n2)o1 [5,8-Dimethyl-2-{2-[1-methyl-4-(5-methyl-furan-2-yl)-1H-imidazol-2-yl]-ethyl}-[1,2,4]triazolo[1,5-a]pyrazine]
4.2	Cc1ccc(-c2cn(C)c(CCc3nc4c(C)ccc(C)n4n3)n2)o1 [5,8-Dimethyl-2-{2-[1-methyl-4-(5-methyl-furan-2-yl)-1H-imidazol-2-yl]-ethyl}-[1,2,4]triazolo[1,5-a]pyridine]
71	Cc1cccc2nc(CCc3nc(-c4cccnc4)cn3C)nn12 [5-Methyl-2-[2-(1-methyl-4-pyridin-3-yl-1H-imidazol-2-yl)-ethyl]-[1,2,4]triazolo[1,5-a]pyridine]
39	Cc1cccc2nc(CCc3nc(-c4cncs4)cn3C)nn12 [5-Methyl-2-[2-(1-methyl-4-thiazol-5-yl-1H-imidazol-2-yl)-ethyl]-[1,2,4]triazolo[1,5-a]pyridine]
9.2	Cc1cccc2nc(CCc3nc(-c4cccs4)cn3C)nn12 [5-Methyl-2-[2-(1-methyl-4-thiophen-2-yl-1H-imidazol-2-yl)-ethyl]-[1,2,4]triazolo[1,5-a]pyridine]
49	CCCn1cc(-c2cccnc2)nc1CCc1nc2cccc(C)n2n1 [5-Methyl-2-[2-(1-propyl-4-pyridin-3-yl-1H-imidazol-2-yl)-ethyl]-[1,2,4]triazolo[1,5-a]pyridine]
9.6	Cc1cccc2nc(CCc3nc(-c4cccnc4)c[nH]3)nn12 [5-Methyl-2-[2-(4-pyridin-3-yl-1H-imidazol-2-yl)-ethyl]-[1,2,4]triazolo[1,5-a]pyridine]
0.54	Cc1cccc2nc(CCc3nc(-c4cccs4)c[nH]3)nn12 [5-Methyl-2-[2-(4-thiophen-2-yl-1H-imidazol-2-yl)-ethyl]-[1,2,4]triazolo[1,5-a]pyridine]
5.7	Cc1cccc2nc(CCc3nc(-c4ccsc4)c[nH]3)nn12 [5-Methyl-2-[2-(4-thiophen-3-yl-1H-imidazol-2-yl)-ethyl]-[1,2,4]triazolo[1,5-a]pyridine]
45	Cc1cscc1-c1c[nH]c(CCc2nc3cccc(C)n3n2)n1 [5-Methyl-2-{2-[4-(4-methyl-thiophen-3-yl)-1H-imidazol-2-yl]-ethyl}-[1,2,4]triazolo[1,5-a]pyridine]
34	Cc1ccc(-c2c[nH]c(CCc3nc4cccc(C)n4n3)n2)o1 [5-Methyl-2-{2-[4-(5-methyl-furan-2-yl)-1H-imidazol-2-yl]-ethyl}-[1,2,4]triazolo[1,5-a]pyridine]
47	Cn1cc(-c2cccs2)nc1CCc1nc2c(F)cccn2n1 [8-Fluoro-2-[2-(1-methyl-4-thiophen-2-yl-1H-imidazol-2-yl)-ethyl]-[1,2,4]triazolo[1,5-a]pyridine]
300	Cn1cc(-c2cncs2)nc1/C=C/c1nc2c(F)cccn2n1 [8-Fluoro-2-[(E)-2-(1-methyl-4-thiazol-5-yl-1H-imidazol-2-yl)-vinyl]-[1,2,4]triazolo[1,5-a]pyridine]
100	Cn1cc(-c2cccs2)nc1/C=C/c1nc2c(F)cccn2n1 [8-Fluoro-2-[(E)-2-(1-methyl-4-thiophen-2-yl-1H-imidazol-2-yl)-vinyl]-[1,2,4]triazolo[1,5-a]pyridine]
94	Cc1ccc(-c2cn(C)c(CCc3nc4c(F)cccn4n3)n2)o1 [8-Fluoro-2-{2-[1-methyl-4-(5-methyl-furan-2-yl)-1H-imidazol-2-yl]-ethyl}-[1,2,4]triazolo[1,5-a]pyridine]
520	Cc1ccc(-c2cn(C)c(/C=C/c3nc4c(F)cccn4n3)n2)o1 [8-Fluoro-2-{(E)-2-[1-methyl-4-(5-methyl-furan-2-yl)-1H-imidazol-2-yl]-vinyl}-[1,2,4]triazolo[1,5-a]pyridine]

SMILES	IC50 [nM]
Cc1cc(C)n2cc(CCc3nc(-c4cccs4)cn3COCC[Si](C)(C)C)nc2n1 [5,7-Dimethyl-2-{2-[4-thiophen-2-yl-1-(2-trimethylsilanyl-ethoxymethyl)-1H-imidazol-2-yl]-ethyl}-imidazo[1,2-a]pyrimidine]	9.6
Cc1cc(C)n2cc(/C=C/c3nc(-c4cccs4)cn3COCC[Si](C)(C)C)nc2n1 [5,7-Dimethyl-2-{(E)-2-[4-thiophen-2-yl-1-(2-trimethylsilanyl-ethoxymethyl)-1H-imidazol-2-yl]-vinyl}-imidazo[1,2-a]pyrimidine]	81
Cc1ccc(-c2cn(COCC[Si](C)(C)C)c(/C=C/c3nc4cccc(C)n4n3)n2)s1 [5-Methyl-2-{(E)-2-[4-(5-methyl-thiophen-2-yl)-1-(2-trimethylsilanyl-ethoxymethyl)-1H-imidazol-2-yl]-vinyl}-[1,2,4]triazolo[1,5-a]pyridine]	210

Reference: patent US9096589B2, “Heteroaromatic phenylimidazole derivatives as PDE10A enzyme inhibitors” (H. Lundbeck A/S, priority 2009, dated 2015)
